US11352359B2, “PI3K protein kinase inhibitors” (Rhizen Pharmaceuticals SA, priority 2013, dated 2022)

What was measured:
PI3Kγ = PI3Kγ (Homo sapiens, UniProt P48736); assay: Fluorescent determination of PI3Kinase enzyme activity (HTRF), PI3Kγ; type: biochemical; details: 100 nM (underlined values: 300 nM)
PI3Kδ = PI3Kδ (Homo sapiens, UniProt O00329); assay: Fluorescent determination of PI3Kinase enzyme activity (HTRF), PI3Kδ; type: biochemical; details: 100 nM (underlined values: 300 nM)
PI3Kβ = PI3Kβ (Homo sapiens, UniProt P42338); assay: Fluorescent determination of PI3Kinase enzyme activity (HTRF), PI3Kβ; type: biochemical
Sequence of PI3Kβ (P42338 whole entry): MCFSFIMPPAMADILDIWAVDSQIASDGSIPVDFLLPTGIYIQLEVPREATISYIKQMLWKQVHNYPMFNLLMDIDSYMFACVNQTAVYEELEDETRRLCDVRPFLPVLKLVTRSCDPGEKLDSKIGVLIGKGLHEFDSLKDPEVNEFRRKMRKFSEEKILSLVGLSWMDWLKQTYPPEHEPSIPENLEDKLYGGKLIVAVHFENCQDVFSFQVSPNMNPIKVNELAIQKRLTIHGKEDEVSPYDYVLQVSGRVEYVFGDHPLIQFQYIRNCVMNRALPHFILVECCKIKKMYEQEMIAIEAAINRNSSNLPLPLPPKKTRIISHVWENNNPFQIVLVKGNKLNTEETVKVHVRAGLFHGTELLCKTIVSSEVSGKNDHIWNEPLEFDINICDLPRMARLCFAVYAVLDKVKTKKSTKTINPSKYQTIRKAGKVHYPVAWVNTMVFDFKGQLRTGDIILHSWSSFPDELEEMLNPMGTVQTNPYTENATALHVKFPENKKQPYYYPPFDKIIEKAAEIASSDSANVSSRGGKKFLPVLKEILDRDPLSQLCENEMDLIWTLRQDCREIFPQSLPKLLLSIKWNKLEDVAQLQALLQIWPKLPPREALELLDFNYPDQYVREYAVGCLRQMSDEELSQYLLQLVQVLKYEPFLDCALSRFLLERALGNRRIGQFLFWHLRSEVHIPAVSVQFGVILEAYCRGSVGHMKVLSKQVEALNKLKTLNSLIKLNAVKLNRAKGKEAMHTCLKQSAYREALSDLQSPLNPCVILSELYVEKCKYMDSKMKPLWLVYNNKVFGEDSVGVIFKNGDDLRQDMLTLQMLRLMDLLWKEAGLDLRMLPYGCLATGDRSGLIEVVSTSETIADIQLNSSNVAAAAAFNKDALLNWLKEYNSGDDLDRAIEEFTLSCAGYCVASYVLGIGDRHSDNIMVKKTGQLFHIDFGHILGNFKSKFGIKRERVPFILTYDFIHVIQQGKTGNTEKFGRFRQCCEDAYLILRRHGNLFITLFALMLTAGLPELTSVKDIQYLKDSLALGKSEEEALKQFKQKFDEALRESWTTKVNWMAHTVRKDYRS
Sequence of PI3Kβ (P27986 whole entry partner): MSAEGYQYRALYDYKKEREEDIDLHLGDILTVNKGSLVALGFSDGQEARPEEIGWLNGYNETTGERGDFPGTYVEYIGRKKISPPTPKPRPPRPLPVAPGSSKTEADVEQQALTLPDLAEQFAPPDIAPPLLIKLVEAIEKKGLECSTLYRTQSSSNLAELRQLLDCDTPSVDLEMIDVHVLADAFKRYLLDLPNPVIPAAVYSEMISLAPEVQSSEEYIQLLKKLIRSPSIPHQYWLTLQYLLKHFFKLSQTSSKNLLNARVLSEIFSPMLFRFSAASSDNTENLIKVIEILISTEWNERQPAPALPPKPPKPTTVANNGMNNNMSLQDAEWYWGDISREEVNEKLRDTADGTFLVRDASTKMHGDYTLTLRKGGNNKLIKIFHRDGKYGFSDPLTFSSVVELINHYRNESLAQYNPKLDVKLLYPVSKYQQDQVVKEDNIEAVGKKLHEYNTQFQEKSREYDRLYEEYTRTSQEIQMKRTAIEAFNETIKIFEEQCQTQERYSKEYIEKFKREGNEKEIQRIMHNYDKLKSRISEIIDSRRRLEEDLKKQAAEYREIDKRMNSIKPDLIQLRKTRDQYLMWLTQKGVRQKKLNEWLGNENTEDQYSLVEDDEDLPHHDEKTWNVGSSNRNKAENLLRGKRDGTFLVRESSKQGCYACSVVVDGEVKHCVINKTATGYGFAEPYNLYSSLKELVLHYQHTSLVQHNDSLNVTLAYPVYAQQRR

PI3Kα = PI3Kα (Homo sapiens, UniProt P42336); assay: Fluorescent determination of PI3Kinase enzyme activity (HTRF), PI3Kα; type: biochemical
Sequence of PI3Kα (P42336 whole entry): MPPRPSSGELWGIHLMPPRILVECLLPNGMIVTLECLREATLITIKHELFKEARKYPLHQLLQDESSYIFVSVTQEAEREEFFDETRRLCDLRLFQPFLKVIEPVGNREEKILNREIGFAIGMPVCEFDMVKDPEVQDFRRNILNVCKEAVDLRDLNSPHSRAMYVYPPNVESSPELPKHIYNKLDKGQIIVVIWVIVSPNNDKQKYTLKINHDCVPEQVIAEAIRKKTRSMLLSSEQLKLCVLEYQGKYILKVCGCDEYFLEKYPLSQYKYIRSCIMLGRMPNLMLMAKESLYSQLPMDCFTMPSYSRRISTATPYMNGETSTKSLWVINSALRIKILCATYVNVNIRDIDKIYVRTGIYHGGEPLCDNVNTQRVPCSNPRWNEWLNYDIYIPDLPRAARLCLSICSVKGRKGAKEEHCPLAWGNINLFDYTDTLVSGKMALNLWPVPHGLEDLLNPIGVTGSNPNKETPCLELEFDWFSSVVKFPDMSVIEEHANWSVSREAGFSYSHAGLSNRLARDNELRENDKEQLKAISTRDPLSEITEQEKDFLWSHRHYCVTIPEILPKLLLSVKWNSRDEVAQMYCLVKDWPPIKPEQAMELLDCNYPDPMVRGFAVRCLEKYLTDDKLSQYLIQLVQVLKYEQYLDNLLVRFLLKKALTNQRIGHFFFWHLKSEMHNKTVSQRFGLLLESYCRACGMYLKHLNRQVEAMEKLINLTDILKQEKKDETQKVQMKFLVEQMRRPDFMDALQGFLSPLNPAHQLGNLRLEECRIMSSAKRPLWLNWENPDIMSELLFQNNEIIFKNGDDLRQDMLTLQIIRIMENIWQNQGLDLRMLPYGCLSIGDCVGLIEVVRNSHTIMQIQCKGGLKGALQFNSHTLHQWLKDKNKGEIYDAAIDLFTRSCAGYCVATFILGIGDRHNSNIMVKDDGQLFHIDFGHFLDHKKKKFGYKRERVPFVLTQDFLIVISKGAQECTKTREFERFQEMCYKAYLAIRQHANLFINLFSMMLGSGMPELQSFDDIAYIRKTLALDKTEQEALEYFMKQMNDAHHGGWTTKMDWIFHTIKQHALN
Sequence of PI3Kα (P27986 whole entry partner): as the sequence (P27986 whole entry partner) above

Sequence of PI3Kδ (O00329 whole entry): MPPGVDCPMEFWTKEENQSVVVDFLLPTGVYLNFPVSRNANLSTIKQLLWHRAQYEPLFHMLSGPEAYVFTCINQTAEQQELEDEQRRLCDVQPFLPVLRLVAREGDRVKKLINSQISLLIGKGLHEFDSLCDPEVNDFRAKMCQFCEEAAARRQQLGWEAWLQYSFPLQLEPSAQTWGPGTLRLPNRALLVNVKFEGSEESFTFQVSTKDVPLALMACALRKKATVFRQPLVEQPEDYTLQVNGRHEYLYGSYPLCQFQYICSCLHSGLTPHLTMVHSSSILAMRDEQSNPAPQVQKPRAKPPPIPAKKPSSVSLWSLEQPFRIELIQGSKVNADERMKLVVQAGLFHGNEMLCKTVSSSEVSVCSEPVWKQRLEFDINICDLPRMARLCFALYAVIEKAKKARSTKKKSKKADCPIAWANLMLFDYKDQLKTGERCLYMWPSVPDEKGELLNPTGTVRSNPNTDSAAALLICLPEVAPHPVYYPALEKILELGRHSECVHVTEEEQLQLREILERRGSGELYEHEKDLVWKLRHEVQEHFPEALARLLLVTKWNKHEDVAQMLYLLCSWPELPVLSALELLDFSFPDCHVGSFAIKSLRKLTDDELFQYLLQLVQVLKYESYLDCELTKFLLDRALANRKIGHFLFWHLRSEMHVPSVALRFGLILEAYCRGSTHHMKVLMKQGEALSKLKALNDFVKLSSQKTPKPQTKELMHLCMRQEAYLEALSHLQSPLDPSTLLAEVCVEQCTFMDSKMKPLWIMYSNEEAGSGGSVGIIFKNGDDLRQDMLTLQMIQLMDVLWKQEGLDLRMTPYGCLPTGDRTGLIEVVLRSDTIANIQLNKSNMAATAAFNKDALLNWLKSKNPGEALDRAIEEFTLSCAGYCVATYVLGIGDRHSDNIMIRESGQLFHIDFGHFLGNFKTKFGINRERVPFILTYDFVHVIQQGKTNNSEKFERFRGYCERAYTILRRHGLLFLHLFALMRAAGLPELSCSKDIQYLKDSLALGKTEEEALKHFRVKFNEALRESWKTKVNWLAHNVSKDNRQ
Sequence of PI3Kδ (P27986 whole entry partner): as the sequence (P27986 whole entry partner) above
Sequence of PI3Kγ (P48736 whole entry): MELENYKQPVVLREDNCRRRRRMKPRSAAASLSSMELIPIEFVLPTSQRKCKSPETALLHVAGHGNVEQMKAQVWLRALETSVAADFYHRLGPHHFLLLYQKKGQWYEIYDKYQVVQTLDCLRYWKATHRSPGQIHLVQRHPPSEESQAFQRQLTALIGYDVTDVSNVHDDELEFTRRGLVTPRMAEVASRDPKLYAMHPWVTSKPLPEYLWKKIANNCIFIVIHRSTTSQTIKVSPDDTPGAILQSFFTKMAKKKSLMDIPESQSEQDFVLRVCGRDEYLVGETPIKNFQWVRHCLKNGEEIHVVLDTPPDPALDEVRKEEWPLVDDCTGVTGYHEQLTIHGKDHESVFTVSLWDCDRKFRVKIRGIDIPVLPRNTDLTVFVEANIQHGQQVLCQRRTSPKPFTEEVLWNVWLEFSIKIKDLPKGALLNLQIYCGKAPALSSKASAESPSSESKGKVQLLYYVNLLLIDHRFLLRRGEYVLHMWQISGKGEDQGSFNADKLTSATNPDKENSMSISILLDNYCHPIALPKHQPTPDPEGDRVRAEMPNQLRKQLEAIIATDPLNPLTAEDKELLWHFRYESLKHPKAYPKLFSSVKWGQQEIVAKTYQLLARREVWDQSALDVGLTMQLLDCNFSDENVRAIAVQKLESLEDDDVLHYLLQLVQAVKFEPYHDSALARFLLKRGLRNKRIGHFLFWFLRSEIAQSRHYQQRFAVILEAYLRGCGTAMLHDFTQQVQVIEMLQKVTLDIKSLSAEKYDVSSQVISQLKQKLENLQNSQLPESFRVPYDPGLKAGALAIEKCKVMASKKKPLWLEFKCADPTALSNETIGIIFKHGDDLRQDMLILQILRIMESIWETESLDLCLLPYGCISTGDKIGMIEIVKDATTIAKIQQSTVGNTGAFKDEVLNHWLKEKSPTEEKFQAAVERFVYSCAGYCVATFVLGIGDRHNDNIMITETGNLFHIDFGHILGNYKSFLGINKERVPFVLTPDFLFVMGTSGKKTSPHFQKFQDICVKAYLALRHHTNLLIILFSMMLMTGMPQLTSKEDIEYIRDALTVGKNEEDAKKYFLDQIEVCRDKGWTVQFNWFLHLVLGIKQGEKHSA

Row | SMILES | melting point [°C] | inhibition at 0.1 µM (PI3Kγ) [%] | inhibition at 0.1 µM (PI3Kδ) [%] | inhibition at 1 µM (PI3Kβ) [%] | inhibition at 1 µM (PI3Kα) [%]
1 | Cc1n[nH]c2cc(-c3nn(C(C)c4cc5cccc(Cl)c5c(=O)n4-c4ccccc4)c4ncnc(N)c34)ccc12 (stereo not shown) [Example 21, 3-(1-(4-amino-3-(3-methyl-1H-indazol-6-yl)-1H-pyrazolo[3,4-d]pyrimidin-1-yl)ethyl)-8-chloro-2-phenylisoquinolin-1(2H)-one] | 289 to 291 | 60 to 80 | 80 to 100 | 60 to 80 | 20 to 40
2 | Cc1n[nH]c2cc(-c3nn([C@H](C)c4cc5cccc(Cl)c5c(=O)n4-c4ccccc4)c4ncnc(N)c34)ccc12 [Example 21b, (−)-3-(1-(4-amino-3-(3-methyl-1H-indazol-6-yl)-1H-pyrazolo[3,4-d]pyrimidin-1-yl)ethyl)-8-chloro-2-phenylisoquinolin-1(2H)-one] | 225 to 227 | 40 to 60 | 80 to 100 | 10 to 20 | 0 to 10
